Results as given in ChEMBL document CHEMBL5634161, “Discovery of benzamide-based PI3K/HDAC dual inhibitors with marked pro-apoptosis activity in lymphoma cells” (Eur J Med Chem, 2023).

Tests used:
Histone deacetylase 1 = Histone deacetylase 1 (Homo sapiens, UniProt Q13547); assay: Inhibition of HDAC1 (unknown origin) using Boc-Lys(acetyl)-AMC as substrate preincubated for 1 hrs followed by substrate addition and measured after 2 hrs by spectrophotometer based fluorometric assay
Histone deacetylase 3 = Histone deacetylase 3 (Homo sapiens, UniProt O15379); assay: Inhibition of HDAC3 (unknown origin) using Boc-Lys(acetyl)-AMC as substrate preincubated for 1 hrs followed by substrate addition and measured after 2 hrs by spectrophotometer based fluorometric assay
[1] = molecular target: Phosphatidylinositol 4,5-bisphosphate 3-kinase catalytic subunit alpha isoform (Homo sapiens, UniProt P42336); assay: Inhibition of PI3Kalpha (unknown origin) using PIP2 as substrate incubated for 1 hrs in presence of ATP by ADP-Glo kinase assay
Histone deacetylase 2 = Histone deacetylase 2 (Homo sapiens, UniProt Q92769); assay: Inhibition of HDAC2 (unknown origin) using Boc-Lys(acetyl)-AMC as substrate preincubated for 1 hrs followed by substrate addition and measured after 2 hrs by spectrophotometer based fluorometric assay
Histone deacetylase 2, sequence (Q92769 whole entry): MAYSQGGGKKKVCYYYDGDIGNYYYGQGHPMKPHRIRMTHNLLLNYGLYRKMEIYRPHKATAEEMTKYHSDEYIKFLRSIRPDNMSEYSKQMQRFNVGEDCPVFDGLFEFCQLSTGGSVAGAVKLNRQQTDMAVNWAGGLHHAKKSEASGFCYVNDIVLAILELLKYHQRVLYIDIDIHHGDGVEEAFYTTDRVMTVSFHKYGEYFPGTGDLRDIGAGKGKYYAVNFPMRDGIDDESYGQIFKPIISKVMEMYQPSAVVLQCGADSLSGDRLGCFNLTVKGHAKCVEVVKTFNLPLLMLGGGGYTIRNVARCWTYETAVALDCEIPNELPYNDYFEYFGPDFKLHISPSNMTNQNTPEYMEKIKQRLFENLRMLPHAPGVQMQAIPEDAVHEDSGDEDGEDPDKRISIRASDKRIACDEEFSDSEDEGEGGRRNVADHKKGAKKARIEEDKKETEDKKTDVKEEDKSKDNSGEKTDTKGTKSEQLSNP

Histone deacetylase 1, sequence (Q13547 whole entry): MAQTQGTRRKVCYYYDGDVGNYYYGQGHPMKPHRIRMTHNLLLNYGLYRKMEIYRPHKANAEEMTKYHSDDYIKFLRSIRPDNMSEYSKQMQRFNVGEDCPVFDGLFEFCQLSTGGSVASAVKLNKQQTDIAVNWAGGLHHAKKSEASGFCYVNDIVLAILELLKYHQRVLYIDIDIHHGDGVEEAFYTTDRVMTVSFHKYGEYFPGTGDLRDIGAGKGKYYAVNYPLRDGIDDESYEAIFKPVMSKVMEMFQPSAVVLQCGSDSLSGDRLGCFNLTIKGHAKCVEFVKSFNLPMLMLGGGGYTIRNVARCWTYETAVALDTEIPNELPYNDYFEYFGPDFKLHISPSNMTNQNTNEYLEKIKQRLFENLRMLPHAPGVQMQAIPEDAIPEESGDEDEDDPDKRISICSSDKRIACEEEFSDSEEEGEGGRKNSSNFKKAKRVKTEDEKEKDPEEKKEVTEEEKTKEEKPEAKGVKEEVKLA
Phosphatidylinositol 4,5-bisphosphate 3-kinase catalytic subunit alpha isoform, sequence (P42336 whole entry, canonical isoform): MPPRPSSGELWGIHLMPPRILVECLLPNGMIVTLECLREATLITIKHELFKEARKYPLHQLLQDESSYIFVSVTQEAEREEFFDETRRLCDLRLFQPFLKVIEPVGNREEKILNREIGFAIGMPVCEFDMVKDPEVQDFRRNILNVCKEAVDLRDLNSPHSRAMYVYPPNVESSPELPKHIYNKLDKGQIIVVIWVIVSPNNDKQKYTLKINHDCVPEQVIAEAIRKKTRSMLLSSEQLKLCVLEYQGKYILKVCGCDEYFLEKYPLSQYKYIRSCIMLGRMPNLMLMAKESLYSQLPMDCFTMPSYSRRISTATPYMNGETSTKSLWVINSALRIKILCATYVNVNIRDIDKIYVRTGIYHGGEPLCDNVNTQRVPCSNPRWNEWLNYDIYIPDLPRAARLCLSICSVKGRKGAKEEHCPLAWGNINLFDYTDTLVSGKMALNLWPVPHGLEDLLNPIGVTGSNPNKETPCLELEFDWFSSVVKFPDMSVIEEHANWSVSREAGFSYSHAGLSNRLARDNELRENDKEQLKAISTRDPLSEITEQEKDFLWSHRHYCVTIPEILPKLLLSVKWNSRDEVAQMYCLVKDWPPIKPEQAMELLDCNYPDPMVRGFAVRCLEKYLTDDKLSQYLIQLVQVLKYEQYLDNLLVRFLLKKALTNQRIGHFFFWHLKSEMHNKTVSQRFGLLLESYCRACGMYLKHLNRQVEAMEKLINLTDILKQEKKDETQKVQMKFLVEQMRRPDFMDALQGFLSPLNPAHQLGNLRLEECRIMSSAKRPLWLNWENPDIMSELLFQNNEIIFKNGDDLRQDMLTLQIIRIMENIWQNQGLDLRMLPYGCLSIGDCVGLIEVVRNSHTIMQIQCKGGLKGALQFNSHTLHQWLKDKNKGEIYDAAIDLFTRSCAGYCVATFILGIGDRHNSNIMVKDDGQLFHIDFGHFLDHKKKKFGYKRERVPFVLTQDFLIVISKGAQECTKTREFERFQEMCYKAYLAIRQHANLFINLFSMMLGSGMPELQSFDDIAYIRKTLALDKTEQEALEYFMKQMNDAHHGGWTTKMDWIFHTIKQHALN
Histone deacetylase 3, sequence (O15379 whole entry, canonical isoform): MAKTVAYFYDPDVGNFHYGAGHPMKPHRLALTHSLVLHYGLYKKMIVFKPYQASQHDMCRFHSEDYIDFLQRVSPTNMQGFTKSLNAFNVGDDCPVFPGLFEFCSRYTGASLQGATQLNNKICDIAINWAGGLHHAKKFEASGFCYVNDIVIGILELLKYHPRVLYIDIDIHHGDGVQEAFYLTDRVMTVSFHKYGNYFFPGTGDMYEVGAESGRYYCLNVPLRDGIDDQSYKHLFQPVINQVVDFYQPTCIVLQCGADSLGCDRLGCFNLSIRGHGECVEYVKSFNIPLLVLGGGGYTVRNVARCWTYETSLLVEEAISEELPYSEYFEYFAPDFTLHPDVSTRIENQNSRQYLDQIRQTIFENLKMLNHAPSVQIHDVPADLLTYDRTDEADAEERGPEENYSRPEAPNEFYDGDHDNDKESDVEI

| IC50 (Histone deacetylase 1) | IC50 (Histone deacetylase 3) | IC50 [1] | IC50 (Histone deacetylase 2) | SMILES |
| --- | --- | --- | --- | --- |
| > 10 µM | 1.41 µM | 0.0143 µM | > 10 µM | Nc1c(NC(=O)c2ccc(NC(=O)Nc3ccc(-c4nc(N5CCOCC5)nc(N5CCOCC5)n4)cc3)cc2)ccc(F)c1F |
| > 10 µM | > 10 µM | 0.0133 µM | > 10 µM | Nc1ccccc1NC(=O)CCCCNC(=O)c1ccc(NC(=O)Nc2ccc(-c3nc(N4CCOCC4)nc(N4CCOCC4)n3)cc2)cc1 |
| > 10 µM | 0.499 µM | 0.017 µM | > 10 µM | Nc1cc(F)ccc1NC(=O)c1ccc(NC(=O)Nc2ccc(-c3nc(N4CCOCC4)nc(N4CCOCC4)n3)cc2)cc1 |
| > 10 µM | 0.134 µM | 0.0065 µM | > 10 µM | Nc1ccccc1NC(=O)c1ccc(NC(=O)Nc2ccc(-c3nc(N4CCOCC4)nc(N4CCOCC4)n3)cc2)cc1 |
| > 10 µM | > 10 µM | 0.0024 µM | > 10 µM | Nc1ccccc1NC(=O)c1ccc(NC(=O)Nc2ccc(-c3nc(OC4COC4)nc(N4CCOCC4)n3)cc2)cc1 |
| 0.404 µM | 0.0765 µM | 0.0293 µM | 0.295 µM | Nc1ccccc1NC(=O)CCCCCCNC(=O)c1ccc(NC(=O)Nc2ccc(-c3nc(N4CCOCC4)nc(N4CCOCC4)n3)cc2)cc1 |
| 0.345 µM | 0.21 µM | 0.0757 µM | 0.49 µM | Nc1ccccc1NC(=O)CCCCCCCNC(=O)c1ccc(NC(=O)Nc2ccc(-c3nc(N4CCOCC4)nc(N4CCOCC4)n3)cc2)cc1 |
| 1.95 µM | > 10 µM | 0.0377 µM | > 10 µM | Nc1ccccc1NC(=O)CNC(=O)c1ccc(NC(=O)Nc2ccc(-c3nc(N4CCOCC4)nc(N4CCOCC4)n3)cc2)cc1 |
| 0.336 µM | 0.0246 µM | 0.0883 µM | 0.459 µM | COc1nc(-c2ccc(NC(=O)Nc3ccc(C(=O)NCCCCCCC(=O)Nc4ccccc4N)cc3)cc2)nc(N2CCOCC2)n1 |
| 0.219 µM | 0.0693 µM | 0.0166 µM | 0.241 µM | Nc1ccccc1NC(=O)CCCCCCNC(=O)c1ccc(NC(=O)Nc2ccc(-c3nc(OC4CCOC4)nc(N4CCOCC4)n3)cc2)cc1 (stereo not given) |
